Test results as given in US8044100B2, “Methods and compositions for treating amyloid-related diseases” (Bellus Health Inc., priority 2004, dated 2011).

Tested on: Aβ peptides (Aβ40, Aβ42) in the plasma and brain of TgCRND8 mice
Assay: Long term treatment (8 or 16 weeks) in TgCRND8 mice: Aβ levels in plasma and brain
Format: in vivo, mouse
Conditions: for Brain Abeta40 insoluble / Brain Abeta40 soluble / Brain Abeta42 insoluble / Brain Abeta42 soluble / Plasma Abeta40 / Plasma Abeta42: BX subcutaneous, BW and BZ oral
Experimental: The long-term therapeutic effects of compounds of the present invention on cerebral amyloid deposition and β-amyloid (Aβ) levels in the plasma and in the brains of transgenic mice, TgCRND8, expressing the human amyloid precursor protein (hAPP) was studied. These compounds were administered over an 8 or 16 week period at the end of which the levels of Aβ peptides in the plasma and brain of TgCRND8 animals were determined. The goal of this study was to evaluate the efficacy of the compounds at modulating the progression of the amyloidogenic process in the brain and in the plasma of a transgenic mouse model of Alzheimer's disease (AD)
The mice used in the study consisted of animals bearing one copy of the hAPP gene (+/−) from the 2nd and 3rd generation progenies (N2 and N3) derived from backcrosses from TgCRND8.FVB(N2)AJ(N3) with B6AF1/J hybrid animals. • N1=TgCRND8.FVB(N2)AJ(N3)×B6AF1/J • N2=TgCRND8.FVB(N2)AJ(N3).B6AF1/J(N1)×B6AF1/J • N3=TgCRND8.FVB(N2)AJ(N3).B6AF1/J(N2)×B6AF1/J
The following abbreviations are used to designate these animals in the present study: TgCRND8.B6AF1/J(N2); TgCRND8.B6AF1/J(N3). Male and female transgenic mice were given daily subcutaneous (compound BX) or oral (compounds BW and BZ) administrations of the appropriate compounds for 8 or 16 weeks.
Baseline animals consisted of 9±1 week old naive TgCRND8.B6AF1/J animals from the 2nd and 3rd generations. These mice were used to determine the extent of cerebral amyloid deposits and Aβ levels in the plasma and brain of naive transgenic animals at the initiation of treatment.
Starting at 9 weeks of age (+1 week) animals received daily administration of their respective treatment for a period of 8 or 16 weeks, at a dose of 30 or 100 mg/kg at 10 ml/kg. The route of administration was subcutaneous for water-soluble compounds (Compound BX) and oral for compounds solubilized in methylcellulose 1% (MC 1%) (Compounds BW and BZ). At the end of the treatment periods, plasma and perfused brains were collected for quantification of Aβ levels.
Animal health was monitored, samples were collected and Aβ levels were measured as described above in the short term treatment study. Compounds were scored based on their ability to modulate levels of Aβ peptides in the plasma and the cerebral soluble/insoluble levels in the brain. Levels of Aβ observed in the plasma and brain of treated animals were compared to that of vehicle-treated (water) or methylcellulose-treated control groups and ranked according to the strength of the pharmacological effect. Increases in the levels of Aβ peptides are indicated using “+” symbols, while decreases in the levels of Aβ peptides are indicated using “−” symbols. The strongest effects are recorded as “+++” or “−−−” while the weakest are shown as “+” or “−”.
Specifically, increases in the levels of Aβ (relative to vehicle treated control) of 5 to 14% are scored as “+”; increases of 15 to 29% are scored as “++”; and increases of 30% or higher are scored as “+++”. Decreases in the levels of Aβ of 5 to 14% are scored as “−”; decreases of 15 to 29% are scored as “−−”; and decreases of 30% or more are scored as “−−−”. Additionally, changes of 4% or less in either direction are scored as “0”.

Compound	Brain Abeta40 insoluble (30 mg/kg daily, 8 wks)	Brain Abeta40 soluble (30 mg/kg daily, 8 wks)	Brain Abeta42 insoluble (30 mg/kg daily, 8 wks)	Brain Abeta42 soluble (30 mg/kg daily, 8 wks)	Plasma Abeta40 (30 mg/kg daily, 8 wks)	Plasma Abeta42 (30 mg/kg daily, 8 wks)	Brain Abeta40 insoluble (30 mg/kg daily, 16 wks)	Brain Abeta40 soluble (30 mg/kg daily, 16 wks)	Brain Abeta42 insoluble (30 mg/kg daily, 16 wks)	Brain Abeta42 soluble (30 mg/kg daily, 16 wks)	Plasma Abeta40 (30 mg/kg daily, 16 wks)	Plasma Abeta42 (30 mg/kg daily, 16 wks)	Brain Abeta40 insoluble (100 mg/kg daily, 8 wks)	Brain Abeta40 soluble (100 mg/kg daily, 8 wks)	Brain Abeta42 insoluble (100 mg/kg daily, 8 wks)	Brain Abeta42 soluble (100 mg/kg daily, 8 wks)	Plasma Abeta40 (100 mg/kg daily, 8 wks)	Plasma Abeta42 (100 mg/kg daily, 8 wks)	Brain Abeta40 insoluble (100 mg/kg daily, 16 wks)	Brain Abeta40 soluble (100 mg/kg daily, 16 wks)	other results
O=S(=O)(O)CCCNC12CC3CC(CC(C3)C1)C2 [BW]	−− (decreases of 15 to 29%)	− (Decreases in the levels of Aβ of 5 to 14%)	0 (changes of 4% or less in either direction)	−− (decreases of 15 to 29%)	−−− (decreases of 30% or more)	−−− (decreases of 30% or more)	++ (increases of 15 to 29%)	+ (increases in the levels of Aβ (relative to vehicle treated control) of 5 to 14%)	+ (increases in the levels of Aβ (relative to vehicle treated control) of 5 to 14%)	− (Decreases in the levels of Aβ of 5 to 14%)	−− (decreases of 15 to 29%)	−− (decreases of 15 to 29%)	−−− (decreases of 30% or more)	−− (decreases of 15 to 29%)	−−− (decreases of 30% or more)	−− (decreases of 15 to 29%)	− (Decreases in the levels of Aβ of 5 to 14%)	− (Decreases in the levels of Aβ of 5 to 14%)	+ (increases in the levels of Aβ (relative to vehicle treated control) of 5 to 14%)	++ (increases of 15 to 29%)	Brain Abeta42 insoluble (100 mg/kg daily, 16 wks): ++ (increases of 15 to 29%); Brain Abeta42 soluble (100 mg/kg daily, 16 wks): + (increases in the levels of Aβ (relative to vehicle treated control) of 5 to 14%); Plasma Abeta40 (100 mg/kg daily, 16 wks): − (Decreases in the levels of Aβ of 5 to 14%); Plasma Abeta42 (100 mg/kg daily, 16 wks): − (Decreases in the levels of Aβ of 5 to 14%); brain and plasma levels of Aβ (at 8 weeks): dramatic decrease; plasma levels of Aβ (at 16 weeks): dramatic decrease
CC(C)(C)NCCCS(=O)(=O)O [BX, 3-(t-butyl)amino-1-propanesulfonic acid]	−−− (decreases of 30% or more)	−−− (decreases of 30% or more)	−− (decreases of 15 to 29%)	−−− (decreases of 30% or more)	+ (increases in the levels of Aβ (relative to vehicle treated control) of 5 to 14%)	+ (increases in the levels of Aβ (relative to vehicle treated control) of 5 to 14%)	−−− (decreases of 30% or more)	−− (decreases of 15 to 29%)	− (Decreases in the levels of Aβ of 5 to 14%)	0 (changes of 4% or less in either direction)	− (Decreases in the levels of Aβ of 5 to 14%)	− (Decreases in the levels of Aβ of 5 to 14%)	++ (increases of 15 to 29%)	+ (increases in the levels of Aβ (relative to vehicle treated control) of 5 to 14%)	0 (changes of 4% or less in either direction)	+ (increases in the levels of Aβ (relative to vehicle treated control) of 5 to 14%)	++ (increases of 15 to 29%)	+++ (increases of 30% or higher)	−−− (decreases of 30% or more)	− (Decreases in the levels of Aβ of 5 to 14%)	Brain Abeta42 insoluble (100 mg/kg daily, 16 wks): −− (decreases of 15 to 29%); Brain Abeta42 soluble (100 mg/kg daily, 16 wks): 0 (changes of 4% or less in either direction); Plasma Abeta40 (100 mg/kg daily, 16 wks): − (Decreases in the levels of Aβ of 5 to 14%); Plasma Abeta42 (100 mg/kg daily, 16 wks): 0 (changes of 4% or less in either direction); amount of Aβ in the brain (at both 8 and 16 weeks): dramatic decrease
